Measured values: patent publication US20230116602A1, “MCL1 INHIBITORS AND USES THEREOF” (California Institute of Technology, priority 2019, published 2023)
Like-named read-outs stand apart in the source and are kept apart here.

How the values were obtained:
MCL1 = MCL1 (Homo sapiens, UniProt Q07820); experiment: MCL1 affinity assay (competition binding, qPCR readout); conditions: recombinant MCL1, 11-point 3-fold dilution series
How it was run: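 Competition binding: DNA-tagged recombinant protein (E. coli BL21-derived or HEK-293), biotinylated peptide ligand-loaded streptavidin beads and compound incubated 1 hour at room temperature, 0.9% DMSO final. Bound protein eluted with 0.5 μM non-biotinylated ligand and quantified by qPCR; Kd from 11-point 3-fold dilution series.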

[1] = tested on: drug-sensitive cell lines of Table 3; experiment: Cell line growth retardation assay, sensitive cohort; format: cell-based, Human; conditions: for IC50: arithmetic mean of IC50s over the sensitive cohort of Table 3, 6 days growth, read-out: AvgSen IC50; for Fold Diff: average IC50 of resistant cohort divided by average IC50 of sensitive cohort
How it was run: (§1)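 Cell lines classed as MCL1-inhibition sensitive or resistant were seeded, rested 24 h, then exposed to 10–0.0032 μM compound for 6 days. Cells were counted by imaging; growth inhibition was the ratio of population doublings with vs without compound from a pre-treatment baseline. IC50 from curve fits, averaged per cohort.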

[2] = tested on: drug-resistant cell lines of Table 3; experiment: Cell line growth retardation assay, resistant cohort; format: cell-based, Human; conditions: arithmetic mean of IC50s over the resistant cohort of Table 3, 6 days growth, read-out: AvgRes IC50
How it was run: as §1

BCLXL = BCLXL (Homo sapiens, UniProt Q07817); experiment: BCLXL affinity assay (competition binding, qPCR readout); conditions: recombinant BCLXL, 11-point 3-fold dilution series
Sequence of BCLXL (Q07817 whole entry): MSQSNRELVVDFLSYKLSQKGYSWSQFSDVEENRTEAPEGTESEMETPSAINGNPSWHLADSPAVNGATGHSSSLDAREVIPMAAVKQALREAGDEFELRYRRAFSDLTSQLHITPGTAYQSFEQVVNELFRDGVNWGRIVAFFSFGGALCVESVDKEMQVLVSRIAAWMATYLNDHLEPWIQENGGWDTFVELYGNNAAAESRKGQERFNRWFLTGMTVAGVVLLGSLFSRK
Procedure: (§2) Recombinant MCL1, BCL2 and BCXL proteins were prepared in either an E. coli host derived from the BL21 strain or in HEK-293 cells. The recombinant proteins were subsequently tagged with DNA for qPCR detection. Streptavidin-coated magnetic beads were treated for 30 minutes at room temperature with the respective biotinylated peptide ligands for each recombinant protein to generate affinity resins for the assays. The liganded beads were blocked with excess biotin and washed with blocking buffer (SeaBlock (Pierce), 1% BSA, 0.05% Tween 20, 1 mM DTT) to remove unbound ligand and to reduce nonspecific binding. Binding reactions were assembled by combining recombinant protein, liganded affinity beads, and test compounds in 1× binding buffer (20% SeaBlock, 0.17×PBS, 0.05% Tween 20, 6 mM DTT). Test compounds were prepared as 111X stocks in 100% DMSO. The compounds were then diluted directly into the assays such that the final concentration of DMSO was 0.9%. The assay plates were incubated at room temperature with shaking for 1 hour and the affinity beads were washed with wash buffer (1×PBS, 0.05% Tween 20). The beads were then re-suspended in elution buffer (1×PBS, 0.05% Tween 20, 0.5 μM non-biotinylated affinity ligand) and incubated at room temperature with shaking for 30 minutes. The recombinant protein concentration in the eluates was measured by qPCR. Kds were determined using an 11-point 3-fold compound dilution series with three DMSO control points.

BCL2 = BCL2 (Homo sapiens, UniProt P10415); experiment: BCL2 affinity assay (competition binding, qPCR readout); conditions: recombinant BCL2, 11-point 3-fold dilution series
Sequence of BCL2 (P10415 whole entry): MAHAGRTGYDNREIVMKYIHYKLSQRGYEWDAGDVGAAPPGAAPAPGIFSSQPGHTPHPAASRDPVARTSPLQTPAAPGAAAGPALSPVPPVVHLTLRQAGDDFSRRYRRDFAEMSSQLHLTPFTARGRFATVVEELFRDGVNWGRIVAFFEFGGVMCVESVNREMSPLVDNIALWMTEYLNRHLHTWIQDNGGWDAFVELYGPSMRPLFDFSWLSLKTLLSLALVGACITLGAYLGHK
Procedure: as §2

Sequence of MCL1 (Q07820 whole entry): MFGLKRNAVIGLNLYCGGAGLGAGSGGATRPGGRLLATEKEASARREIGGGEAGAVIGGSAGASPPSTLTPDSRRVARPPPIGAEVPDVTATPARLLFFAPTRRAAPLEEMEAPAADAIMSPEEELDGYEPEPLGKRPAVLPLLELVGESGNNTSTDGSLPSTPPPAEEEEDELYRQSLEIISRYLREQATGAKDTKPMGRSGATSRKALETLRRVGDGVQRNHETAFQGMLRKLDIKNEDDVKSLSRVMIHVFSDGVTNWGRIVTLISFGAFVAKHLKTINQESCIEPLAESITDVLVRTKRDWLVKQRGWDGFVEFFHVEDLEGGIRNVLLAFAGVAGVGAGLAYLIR

Row | SMILES | Kd (MCL1) [nM] | IC50 [1] [µM] | Fold Diff [1] | IC50 [2] [µM] | Kd (BCLXL) [nM] | Kd (BCL2) [nM] | IC50 ([1]; Homo sapiens, 144 h) [µM] | IC50 ([2]; Homo sapiens, 144 h) [µM]
1 | Cc1c(-c2c(-c3ccc(F)s3)ncc3snc(O[C@H](Cc4ccccc4OCc4ccnn4CC(F)(F)F)C(=O)O)c23)ccc(OCCN2CCN(C)CC2)c1Cl (single isomer, unassigned) [Compound 2] | 501 to 1500 | 1 to 5 | − (“−” represents a fold difference less than 10) | > 5 | > 1500 | > 1500 |  | 
2 | Cc1c(-c2c(Cl)ncc3snc(O[C@H](Cc4ccccc4OCc4ccnn4CC(F)(F)F)C(=O)O)c23)ccc(OCCN2CCN(C)CC2)c1Cl (single isomer, unassigned) [Compound 4] | 501 to 1500 | > 5 | − (“−” represents a fold difference less than 10) | > 5 | > 1500 | > 1500 |  | 
3 | COc1ccccc1-c1nccc(COc2ccccc2C[C@@H](Oc2nsc3cnc(-c4ccccn4)c(-c4ccc(OCCN5CCN(C)CC5)c(Cl)c4C)c23)C(=O)O)n1 (atropisomer, axis not shown) [Compound 53] | ≤ 100 |  | − (“−” represents a fold difference less than 10) |  | > 1500 | > 1500 | > 5 | > 5
4 | Cc1cc2cccc(-c3ncc4snc(O[C@H](Cc5ccccc5OCc5ccnn5CC(F)(F)F)C(=O)O)c4c3-c3ccc(OCCN4CCN(C)CC4)c(Cl)c3C)c2[nH]1 (atropisomer, axis not shown) [Compound 17] | 501 to 1500 |  | − (“−” represents a fold difference less than 10) |  | > 1500 | > 1500 | > 5 | > 5
5 | Cc1c(-c2c(-c3cccc4cc[nH]c34)ncc3snc(O[C@H](Cc4ccccc4OCc4ccnn4CC(F)(F)F)C(=O)O)c23)ccc(OCCN2CCN(C)CC2)c1Cl (atropisomer, axis not shown) [Compound 18] | > 1500 |  | − (“−” represents a fold difference less than 10) |  | > 1500 | > 1500 | > 5 | > 5
6 | Cc1c(-c2c(-c3cn(C)c4ccccc34)ncc3snc(O[C@H](Cc4ccccc4OCc4ccnn4CC(F)(F)F)C(=O)O)c23)ccc(OCCN2CCN(C)CC2)c1Cl (atropisomer, axis not shown) [Compound 20] | 501 to 1500 |  | − (“−” represents a fold difference less than 10) |  | > 1500 | > 1500 | > 5 | > 5
7 | COc1cccc(-c2ncc3snc(O[C@H](Cc4ccccc4OCc4ccnc(-c5ccccc5OC)n4)C(=O)O)c3c2-c2ccc(OC)c(Cl)c2C)c1 (atropisomer, axis not shown) [Compound 51] | ≤ 100 |  | − (“−” represents a fold difference less than 10) |  | > 1500 | > 1500 | 1 to 5 | > 5
8 | COCCOc1ccc(-c2c(-c3cccc(OC)c3)ncc3snc(O[C@H](Cc4ccccc4OCc4ccnc(-c5ccccc5OC)n4)C(=O)O)c23)c(C)c1Cl (atropisomer, axis not shown) [Compound 44] | ≤ 100 |  | − (“−” represents a fold difference less than 10) |  | > 1500 | > 1500 | > 5 | > 5
9 | COc1ccccc1-c1nccc(COc2ccccc2C[C@@H](Oc2nsc3cnc(C4=CCOCC4)c(-c4ccc(OCCN5CCN(C)CC5)c(Cl)c4C)c23)C(=O)O)n1 (atropisomer, axis not shown) [Compound 54] | ≤ 100 |  | − (“−” represents a fold difference less than 10) |  | > 1500 | > 1500 | 1 to 5 | > 5
10 | Cc1c(-c2c(-c3cccc4ccoc34)ncc3snc(O[C@H](Cc4ccccc4OCc4ccnn4CC(F)(F)F)C(=O)O)c23)ccc(OCCN2CCN(C)CC2)c1Cl (atropisomer, axis not shown) [Compound 21] | 101 to 500 |  | − (“−” represents a fold difference less than 10) |  | > 1500 | > 1500 | 1 to 5 | > 5
11 | COc1cccc(-c2ncc3snc(O[C@H](Cc4ccccc4OCc4ccnc(-c5ccccc5OC)n4)C(=O)O)c3c2-c2ccc(OCCN3CCCCC3)c(Cl)c2C)c1 (atropisomer, axis not shown) [Compound 43] | ≤ 100 |  | − (“−” represents a fold difference less than 10) |  | > 1500 | > 1500 | 1 to 5 | > 5
12 | Cc1c(-c2c(-c3csc4ccccc34)ncc3snc(O[C@H](Cc4ccccc4OCc4ccnn4CC(F)(F)F)C(=O)O)c23)ccc(OCCN2CCN(C)CC2)c1Cl (atropisomer, axis not shown) [Compound 19] | > 1500 |  | − (“−” represents a fold difference less than 10) |  | > 1500 | > 1500 | 1 to 5 | > 5
13 | COc1cccc(-c2ncc3snc(O[C@H](Cc4ccccc4OCc4ccnc(-c5ccccc5OC)n4)C(=O)O)c3c2-c2ccc(OCCN(C)C)c(Cl)c2C)c1 (atropisomer, axis not shown) [Compound 46] | ≤ 100 |  | + (“+” represents a fold difference of 10 or more) |  | > 1500 | > 1500 | ≤ 1 | > 5
14 | Cc1c(-c2c(-c3cccc4c3sc3ccccc34)ncc3snc(O[C@H](Cc4ccccc4OCc4ccnn4CC(F)(F)F)C(=O)O)c23)ccc(OCCN2CCN(C)CC2)c1Cl (atropisomer, axis not shown) [Compound 9] | > 1500 |  | − (“−” represents a fold difference less than 10) |  | > 1500 | > 1500 | > 5 | > 5
15 | Cc1c(-c2c(-c3cccc4ccccc34)ncc3snc(O[C@H](Cc4ccccc4OCc4ccnn4CC(F)(F)F)C(=O)O)c23)ccc(OCCN2CCN(C)CC2)c1Cl (atropisomer, axis not shown) [Compound 7] | > 1500 |  | − (“−” represents a fold difference less than 10) |  | > 1500 | > 1500 | > 5 | > 5
16 | COc1cccc(-c2ncc3snc(O[C@H](Cc4ccccc4OCc4ccnc(-c5ccccc5OC)n4)C(=O)O)c3c2-c2ccc(OCCCN(C)C)c(Cl)c2C)c1 (atropisomer, axis not shown) [Compound 47] | ≤ 100 |  | + (“+” represents a fold difference of 10 or more) |  | > 1500 | > 1500 | ≤ 1 | > 5
17 | COc1cccc(-c2ncc3snc(O[C@H](Cc4ccccc4OCc4ccnc(-c5ccccc5OC)n4)C(=O)O)c3c2-c2ccc(OCCC3CCN(C)CC3)c(Cl)c2C)c1 (atropisomer, axis not shown) [Compound 45] | ≤ 100 |  | − (“−” represents a fold difference less than 10) |  | > 1500 | > 1500 | 1 to 5 | > 5
18 | COc1cccc(-c2ncc3snc(O[C@H](Cc4ccccc4OCc4ccnc(-c5ccccc5OC)n4)C(=O)O)c3c2-c2ccc(OCCN3CCOCC3)c(Cl)c2C)c1 (single isomer, unassigned) [Compound 42] | ≤ 100 |  | − (“−” represents a fold difference less than 10) |  | > 1500 | > 1500 | 1 to 5 | > 5
19 | Cc1c(-c2c(-c3ccc(F)cc3)ncc3snc(O[C@H](Cc4ccccc4OCc4ccnn4CC(F)(F)F)C(=O)O)c23)ccc(OCCN2CCN(C)CC2)c1Cl (single isomer, unassigned) [Compound 5] | > 1500 | > 5 | − (“−” represents a fold difference less than 10) | > 5 | > 1500 | > 1500 |  | 
20 | Cc1c(-c2c(-c3cccc4c3NC(=O)C4)ncc3snc(O[C@H](Cc4ccccc4OCc4ccnn4CC(F)(F)F)C(=O)O)c23)ccc(OCCN2CCN(C)CC2)c1Cl (atropisomer, axis not shown) [Compound 12] | > 1500 |  | − (“−” represents a fold difference less than 10) |  | > 1500 | > 1500 | > 5 | > 5
